Reference: patent publication US20120029045A1, “METHOD FOR TREATING PORT WINE STAINS” (SHANGHAI FUDAN-ZHANGJIANG BIO-PHARMACEUTICAL CO., LTD., priority 2010, published 2012)

System: port wine stain lesion
Assay: PDT for PWS, therapeutic effect assessment
Format: in vivo, human
Procedure: The effectiveness of PWS treatment with […] is categorized as being Excellent (I), Good (II), Effective (III) or Ineffective (IV). […] [table] A solution of 1 ml saline was injected in the superficial vein (e.g. median cubital vein) of patients to ensure no liquid leaked into tissues adjacent to the blood vessels into which the injection was made. At the same site, HMME was injected intravenously for 20 minutes with a constant flow rate by using an infusion pump. The doses applied were 2.5 mg/kg body weight or 5.0 mg/kg body weight. Next, 2-4 ml of saline solution was again injected to prevent the drugs from aggregating locally. Irradiation with KTP532 laser was then applied to the patient's lesion site 0-10 minutes after the start of injection, for a total duration of irradiation of either 20 minutes (denoted as the 20 min group), or 30 minutes (denoted as the 30 minute group). […] When irradiation was started immediately after the start of injection, the overlap between the injection and irradiation was about 20 minutes, when irradiation started 5 minutes after the start of injection, the overlap between drug injection and light irradiation was approximately 15 minutes, and when irradiation was started 10 minutes after the start of injection, the overlap was about 10 minutes. The therapeutic results were measured 8 weeks after the treatment. A dose of 5.0 mg/kg body weight of the poryphin based drug was injected, total irradiation durations were 20 min and 30 min respectively, and the effects and adverse effects were assessed. In this example doses of 2.5 and 5.0 mg/kg body weight respectively, were applied, the patient was irradiated for 20 min, and the therapeutic effects and the adverse effects were assessed.

[1] = 5.0 mg/kg, irradiation 20 min, 8 weeks after treatment
[2] = 5.0 mg/kg, irradiation 30 min, 8 weeks after treatment
[3] = Part B, 2.5 mg/kg group, irradiated 20 min, 8 weeks after treatment
[4] = Part B, 2.5 mg/kg group, irradiated 20 min, 8 weeks after treatment, 2.5 mg/kg
[5] = Part B, 5.0 mg/kg group, irradiated 20 min, 8 weeks after treatment
[6] = Part B, Purple type PWS, 2.5 mg/kg group, irradiated 20 min
[7] = Part B, Purple type PWS, 5.0 mg/kg group, irradiated 20 min
[8] = Part B, Red type PWS, 2.5 mg/kg group, irradiated 20 min
[9] = Part B, Red type PWS, 5.0 mg/kg group, irradiated 20 min
[10] = Part B, Thickening type PWS, 2.5 mg/kg group, irradiated 20 min
[11] = Part B, Thickening type PWS, 5.0 mg/kg group, irradiated 20 min
[12] = Purple type PWS, 5.0 mg/kg, irradiation 20 min
[13] = Purple type PWS, 5.0 mg/kg, irradiation 30 min
[14] = Red type PWS, 5.0 mg/kg, irradiation 20 min
[15] = Red type PWS, 5.0 mg/kg, irradiation 30 min
[16] = Thickening type PWS, 5.0 mg/kg, irradiation 20 min
[17] = Thickening type PWS, 5.0 mg/kg, irradiation 30 min

Substance: hematoporphyrin monomethyl ether [HMME]
- Excellent (cases) [1]: 2
- Excellent rate % [1]: 10.0%
- Good (cases) [1]: 9
- Ineffective (cases) [1]: 4
- Moderate (cases) [1]: 5
- Response rate % [1]: 80.0%
- Significant response rate % [1]: 55.0%
- Excellent (cases) [2]: 7
- Excellent rate % [2]: 36.8%
- Good (cases) [2]: 8
- Ineffective (cases) [2]: 1
- Moderate (cases) [2]: 3
- Response rate % [2]: 94.7%
- Significant response rate % [2]: 78.9%
- Excellent (cases) [3]: 0
- Good (cases) [3]: 1
- Ineffective (cases) [3]: 24
- Moderate (cases) [3]: 15
- Significant response rate % [3]: 2.5%
- Excellent rate % [4]: 0%
- Response rate % [4]: 40%
- Excellent (cases) [5]: 2
- Excellent rate % [5]: 5.0%
- Good (cases) [5]: 14
- Ineffective (cases) [5]: 10
- Moderate (cases) [5]: 14
- Response rate % [5]: 75.0%
- Significant response rate % [5]: 40.0%
- Excellent (cases) [6]: 0
- Excellent rate % [6]: 0.0%
- Good (cases) [6]: 0
- Ineffective (cases) [6]: 14
- Moderate (cases) [6]: 3
- Response rate % [6]: 17.6%
- Significant response rate % [6]: 0.0%
- Excellent (cases) [7]: 0
- Excellent rate % [7]: 0.0%
- Good (cases) [7]: 7
- Ineffective (cases) [7]: 8
- Moderate (cases) [7]: 9
- Response rate % [7]: 66.7%
- Significant response rate % [7]: 29.2%
- Excellent (cases) [8]: 0
- Excellent rate % [8]: 0.0%
- Good (cases) [8]: 1
- Ineffective (cases) [8]: 7
- Moderate (cases) [8]: 8
- Response rate % [8]: 56.3%
- Significant response rate % [8]: 6.3%
- Excellent (cases) [9]: 2
- Excellent rate % [9]: 14.3%
- Good (cases) [9]: 7
- Ineffective (cases) [9]: 1
- Moderate (cases) [9]: 4
- Response rate % [9]: 92.9%
- Significant response rate % [9]: 64.3%
- Excellent (cases) [10]: 0
- Excellent rate % [10]: 0/7
- Good (cases) [10]: 0
- Ineffective (cases) [10]: 3
- Moderate (cases) [10]: 4
- Response rate % [10]: 4/7
- Significant response rate % [10]: 0/7
- Excellent (cases) [11]: 0
- Excellent rate % [11]: 0/2
- Good (cases) [11]: 0
- Ineffective (cases) [11]: 1
- Moderate (cases) [11]: 1
- Response rate % [11]: 1/2
- Significant response rate % [11]: 0/2
- Excellent (cases) [12]: 0
- Excellent rate % [12]: 0/0
- Good (cases) [12]: 2
- Ineffective (cases) [12]: 1
- Moderate (cases) [12]: 3
- Response rate % [12]: 5/6
- Significant response rate % [12]: 2/6
- Excellent (cases) [13]: 1
- Excellent rate % [13]: 1/8
- Good (cases) [13]: 5
- Ineffective (cases) [13]: 0
- Moderate (cases) [13]: 2
- Response rate % [13]: 8/8
- Significant response rate % [13]: 6/8
- Excellent (cases) [14]: 2
- Excellent rate % [14]: 2/11
- Good (cases) [14]: 7
- Ineffective (cases) [14]: 0
- Moderate (cases) [14]: 2
- Response rate % [14]: 11/11
- Significant response rate % [14]: 9/11
- Excellent (cases) [15]: 6
- Excellent rate % [15]: 6/10
- Good (cases) [15]: 2
- Ineffective (cases) [15]: 1
- Moderate (cases) [15]: 1
- Response rate % [15]: 9/10
- Significant response rate % [15]: 8/10
- Excellent (cases) [16]: 0
- Excellent rate % [16]: 0/0
- Good (cases) [16]: 0
- Ineffective (cases) [16]: 3
- Moderate (cases) [16]: 0
- Response rate % [16]: 0/0
- Significant response rate % [16]: 0/0
- Excellent (cases) [17]: 0
- Excellent rate % [17]: 0/0
- Good (cases) [17]: 1
- Ineffective (cases) [17]: 0
- Moderate (cases) [17]: 0
- Response rate % [17]: 1/1
- Significant response rate % [17]: 1/1
